Usually melting point stands for the temperature of the solid-liquid transition.

Among the data in the Bradley open melting point set (2014) are melting point values, retold here.

`CC(C)(C)c1ccc(B(O)O)cc1` [4-tert-butylbenzeneboronic acid] yielded a melting point of 194 °C.

Molecule `O=C(O)Cc1ccccc1Nc1c(Cl)cccc1Cl` [diclofenac] displayed a melting point of 157 °C.

On to `S=C=NC(c1ccccc1)(c1ccccc1)c1ccccc1` [triphenylmethyl isothiocyanate], for which the melting point was determined as 135 °C.

With `COc1cc(C(=O)NN)ccc1O` [vanillic acid hydrazide], the melting point was 211 °C.

For `COc1ccc(N)c(C)c1` [4-methoxy-2-methylaniline], the melting point amounted to 14 °C.

`CCOC(=O)c1ccccc1C(=O)OCC` [Diethyl phthalate] displayed a melting point of -3 °C.

Molecule `Cc1cc[n+]([O-])cc1C#N` [4-methylpyridine-3-carbonitrile 1-oxide] showed a melting point of 185 °C.

As to `Cc1ccc(C(C)C)cc1O` [5-Isopropyl-2-methylphenol], the melting point is 2 °C.

As to `N#Cc1c(F)ccc([N+](=O)[O-])c1F` [2,6-difluoro-3-nitrobenzonitrile], the melting point turned out to be 53 °C.

For `Nc1cccc([N+](=O)[O-])c1` [3-nitroaniline], the melting point amounted to 113 °C.

Regarding `c1ccc(CCc2ccccc2)cc1` [bibenzyl], the melting point was 52 °C.

Turning to `C=C1C(=O)C23C(OC(C)=O)CC4C(C)(C)CCC(OC(C)=O)C4(C)C2C(OC(C)=O)CC1C3OC(C)=O` (stereo not drawn) [15-oxokaur-16-ene-1,7,11,14-tetrayl tetraacetate], the melting point was found to be 237 °C.

`Cc1ccnc(NS(=O)(=O)c2ccc(N)cc2)n1` [sulfamerazine] showed a melting point of 236 °C.

For `Cc1ccc(-c2nc(-c3ccccc3)cs2)cc1` [4-phenyl-2-(p-tolyl)thiazole], the melting point worked out at 58 °C.

For `CC(=O)c1ccc(C#N)cc1` [p-acetyl_benzonitrile], the melting point worked out at 59 °C.

`CCOC(=O)c1ccc(N)cc1` [ethyl_4-aminobenzoate]: the melting point is 89 °C.

`O=C(C=Cc1ccccc1)C=Cc1ccccc1` [1,5-Diphenylpenta-1,4-dien-3-one] showed a melting point of 111 °C.

As for `c1ccc2cc(C3CNCCN3)ccc2c1` (stereo not drawn) [2-(2-naphthyl)piperazine], the melting point stood at 102 °C.

`Cc1ccc(Br)cc1` [1-Bromo-4-methylbenzene] came in with a melting point of 28.5 °C.

For `C=CC(=C)C` [isoprene], the melting point was -146 °C.

Consider `O=C1CCCCCCCCCCCCCCO1` [pentadecanolide], for which the melting point is 35 °C.

Regarding `O=C(N[C@@H](Cc1ccccc1)C(=O)O)OCc1ccccc1` [N-benzyloxycarbonyl-l-phenylalanine], the melting point came to 86 °C.

For the molecule `O=Cc1ccc(C=O)cc1` [terephthaldicarboxaldehyde], the melting point is 116 °C.

Regarding `O=[N+]([O-])c1cccc(CCl)c1` [3-nitrobenzyl_chloride], the melting point was 47 °C.

The molecule `O=C1Cc2ccccc2C(=O)O1` [homophthalic anhydride] had a melting point of 142 °C.

In turn, `CC(=O)Oc1ccc(C(C)=O)cc1` [p-acetoxy_acetophenone] returned a melting point of 54 °C.

`[2H]c1c([2H])c([2H])c2c(c1[2H])c([2H])c([2H])c1c3c([2H])c([2H])c([2H])c([2H])c3c([2H])c([2H])c21` [(~2~H_12_)Chrysene] showed a melting point of 255 °C.

`O=S(=O)(O)CCCN1CCOCC1` [3-(Morpholin-4-yl)propane-1-sulfonic acid] gave a melting point of 277 °C.

Take `C#C[C@]1(O)CC[C@H]2[C@@H]3CCC4=CC(=O)CC[C@@H]4[C@H]3CC[C@@]21CC` [Levonorgestrel]: the melting point came out at 236 °C.

Consider `O=C(CCCN1CCC(n2c(=O)[nH]c3ccccc32)CC1)c1ccc(F)cc1` [benperidol], for which the melting point came to 170 °C.

With `COc1ccc(C=O)c(OC)c1OC` [2,3,4-trimethoxybenzaldehyde], the melting point is 40 °C.

For `c1ccc2c(c1)oc1ccccc12` [Dibenzofuran], the melting point was 82 °C.

As for `COc1ccc(C(=O)O)cc1[N+](=O)[O-]` [4-methoxy-3-nitrobenzoic acid], the melting point is 188 °C.

`CC(C)Oc1ccc2c(=O)c(-c3ccccc3)coc2c1` [ipriflavone] gave a melting point of 115 °C.

With `O=[N+]([O-])c1cc[n+]([O-])c2ccccc12` [4-Nitroquinoline 1-oxide], the melting point is 154 °C.

`C1CNCCN1` [piperazine, anhydrous]: the melting point is 110 °C.

As to `Cc1ccc(B(O)O)c(C)c1` [2,4-dimethylbenzeneboronic acid], the melting point amounted to 206 °C.

Molecule `Brc1cccc(I)c1` [1-bromo-3-iodobenzene] returned a melting point of -9 °C.

As for `CCCCCl` [1-Chlorobutane], the melting point is -123 °C.

For `CC(C)CN` [isobutylamine], the melting point is -85 °C.

In turn, `O=C(O)c1ccccc1[N+](=O)[O-]` [2-nitrobenzoic acid] registered a melting point of 148 °C.

`CCCCC(=O)c1ccccc1` [valerophenone] came in with a melting point of -9 °C.

`COc1cccc(C=O)c1O` [2-hydroxy-3-methoxybenzaldehyde] came in with a melting point of 41 °C.

`Clc1ccc(SSc2ccc(Cl)cc2)cc1` [bis(4-chlorophenyl) disulfide]: the melting point stood at 73 °C.

For the molecule `CC(C)C(=O)O` [Isobutyric Acid], the melting point is -46 °C.

In turn, `C/C(=C(/C#N)c1nc2ccccc2s1)c1cc2ccccc2oc1=O` showed a melting point of 156 °C.

In the case of `Cc1ccccc1CCl` [2-methylbenzyl chloride], the melting point stood at 2 °C.

The molecule `O=C1OC(=O)c2ccccc21` [phthalic anhydride] showed a melting point of 132 °C.

For the molecule `c1ccc2c(c1)ccc1ccccc12` [Phenanthrene], the melting point worked out at 100 °C.

Molecule `O=C(O)c1ccc(-n2nc(-c3ccccc3O)nc2-c2ccccc2O)cc1` [Deferasirox] registered a melting point of 116 °C.

Turning to `Clc1ccccc1C(Cl)(Cl)Cl` [2-chlorobenzotrichloride], the melting point is 30 °C.

`CC(C)(C)c1ccc(-c2ccc(Br)cc2)cc1` [4-bromo-4'-tert-butylbiphenyl] displayed a melting point of 142 °C.

The molecule `COc1cc(CCC(C)=O)ccc1O` [4-(4-hydroxy-3-methoxyphenyl)-2-butanone] registered a melting point of 41 °C.

`CC(C)c1ccc(O)cc1` [4-isopropylphenol] displayed a melting point of 60 °C.

`Clc1c(Cl)c(Cl)c(Cl)c(Cl)c1Cl` [Hexachlorobenzene] returned a melting point of 228 °C.

`C[C@@H](Cl)CCl` [1,2-Dichloro-Propane] gave a melting point of -100 °C.

Regarding `CCC(=C(c1ccccc1)c1ccc(OCCN(C)C)cc1)c1ccccc1` [tamoxifen], the melting point was 96 °C.

In turn, `O=[N+]([O-])c1cccc2ccccc12` [1-Nitronaphthalene] yielded a melting point of 61.5 °C.

Molecule `Cc1ccc(C)c(C(=O)O)c1` yielded a melting point of 134 °C.

For the molecule `N#Cc1ccc(F)cc1[N+](=O)[O-]` [4-fluoro-2-nitrobenzonitrile], the melting point was found to be 71 °C.

Molecule `O=[N+]([O-])c1cc[n+]([O-])cc1` [4-nitropyridine n-oxide] came in with a melting point of 161 °C.

In the case of `O=C(c1ccccc1)c1ccc(C(F)(F)F)cc1` [4-(trifluoromethyl)benzophenone], the melting point was 118 °C.

With `O=C(O)CCC(=O)C(=O)O` [2-oxopentanedioic acid], the melting point is 116 °C.
